Data: patent US9556229B2, “Modification of peptides using a bis(thioether)arylbridge approach” (priority 2012, dated 2017)
Starred links: 1 amine or outer side, 2 acyl side, 3 side chain; linkers in the order of their positions; H or OH if unused. Positions of bridges follow the written chain, without caps; N, C: chain ends. Non-standard residues stand in square brackets, D forms with d. Residues, ends and D or L forms follow the SMILES beside them. ξ: configuration not given here. *: point of attachment. X2 = Cc1cn([C@H]2C[C@H](n3cc(CCCC(=O)*)nn3)[C@@H](CO)O2)c(=O)[nH]c1=O; DAMPA = CN(Cc1cnc2nc(N)nc(N)c2n1)c1ccc(C(=O)*)cc1; Phe(F5) = N[C@@H](Cc1c(F)c(F)c(F)c(F)c1F)C(=O)O; Pro(4R-Bn) = O=C(O)[C@@H]1C[C@@H](Cc2ccccc2)CN1; X1 = O=C(Cc1ccc(CSCCCCN[*:1])cc1)[*:2]; γGlu = O=C(O)[C@H](CCC(=O)[*:2])N[*:1]; 1Nal = N[C@@H](Cc1cccc2ccccc12)C(=O)O; 2Nal = N[C@@H](Cc1ccc2ccccc2c1)C(=O)O; mXylylene = c1cc(C[*:1])cc(C[*:2])c1; oXylylene = c1ccc(C[*:2])c(C[*:1])c1; Cha = N[C@@H](CC1CCCCC1)C(=O)O; Cysteamide = C(CS[*:3])N[*:1]; Chg = N[C@H](C(=O)O)C1CCCCC1; Tle = CC(C)(C)[C@H](N)C(=O)O; Nicotinoyl = O=C(c1cccnc1)*; ξDisc = O=C(O)C1NCc2ccccc21; N(CH2CH2)2NH = C1CN(*)CCN1; β3hP = O=C(O)C[C@@H]1CCCN1; NMeA = CN[C@@H](C)C(=O)O; Inp = O=C(O)C1CCNCC1; Ahx = NCCCCCC(=O)O

The molecules below were run on MDA-MB-231 breast cancer cell line (assay: not given). Conditions: not given.

SMILES | EC50 [µM]
CN[C@@H](C)C(=O)N[C@H](C(=O)N1C[C@H](Cc2ccccc2)C[C@H]1C(=O)N[C@@H](CC1CCCCC1)C(=O)NCCS)C(C)(C)C [SMAC12, N^MeAla-Tle-(4-Bzl)Pro-Cha-NHCH2CH2SH] (H-[NMeA][Tle][Pro(4R-Bn)][Cha]-Cysteamide; N-terminus assumed) | 10.1 ± 2.6
CN[C@@H](C)C(=O)N[C@H](C(=O)N1C[C@H](Cc2ccccc2)C[C@H]1C(=O)N[C@H](C(=O)NCCS)C1CCCCC1)C(C)(C)C [SMAC6, N^MeAla-Tle-(4-Bzl)Pro-Chg-NHCH2CH2SH] (H-[NMeA][Tle][Pro(4R-Bn)][Chg]-Cysteamide; N-terminus assumed) | 9.8 ± 3.1
CN[C@@H](C)C(=O)N[C@H](C(=O)N1C[C@H](Cc2ccccc2)C[C@H]1C(=O)N[C@@H](Cc1c(F)c(F)c(F)c(F)c1F)C(=O)NCCS)C(C)(C)C [SMAC9, N^MeAla-Tle-(4-Bzl)Pro-PhF-NHCH2CH2SH] | 27 ± 3.2

Each molecule was assayed on HCT116 colorectal cancer cells (assay: not given). Conditions: not given.

SMILES | EC50 [µM]
CC(C)C[C@H](NC(=O)[C@H](CCCNC(=N)N)NC(=O)[C@@H]1CSCc2cccc(c2)CSC[C@H](NC(=O)[C@H](Cc2ccccc2)NC(=O)[C@H](CCCNC(=N)N)NC(=O)c2cccnc2)C(=O)N[C@@H](CCCNC(=N)N)C(=O)N[C@@H](Cc2ccc(O)cc2)C(=O)N[C@@H](Cc2c[nH]c3ccccc23)C(=O)N1)C(=O)N[C@@H](CCCNC(=N)N)C(=O)N1CCC[C@H]1C(N)=O [ArB15GNicm] (Nicotinoyl-RFCRYWCRLRP-NH2; linker 3-7 via mXylylene) | 126
N=C(N)NCCC[C@@H](N)C(=O)N[C@@H](CCCNC(=N)N)C(=O)N[C@@H](Cc1ccc2ccccc2c1)C(=O)N[C@@H](CCCNC(=N)N)C(=O)N[C@@H]1CSCc2ccccc2CSC[C@@H](C(=O)N[C@H](CCCNC(=N)N)C(=O)N[C@@H](CC2CCCCC2)C(=O)N[C@@H](CCCNC(=N)N)C(=O)N2Cc3ccccc3C2C(N)=O)NC(=O)[C@H](Cc2cccc3ccccc23)NC(=O)[C@H](Cc2ccc(O)cc2)NC1=O (stereo partly drawn) [ArB14Bo, Arg-Arg-Na2-Arg-Cys-Tyr-Na1-Cys-Arg-Cha-Arg-DISC] (H-[dR]R[2Nal]R[dC]Y[1Nal]C[dR][Cha]R[ξDisc]-NH2; linker 5-8 via oXylylene; N-terminus assumed) | 10.7 ± 0.7
CC(C)C[C@H](NC(=O)[C@H](CCCNC(=N)N)NC(=O)[C@H](CS)NC(=O)[C@H](Cc1c[nH]c2ccccc12)NC(=O)[C@H](Cc1ccc(O)cc1)NC(=O)[C@H](CCCNC(=N)N)NC(=O)[C@H](CS)NC(=O)[C@H](Cc1ccccc1)NC(=O)[C@H](CCCNC(=N)N)NC(=O)c1cccnc1)C(=O)N[C@@H](CCCNC(=N)N)C(=O)N1CCC[C@H]1C(N)=O [ArB15F/GNicr] (Nicotinoyl-RFCRYWCRLRP-NH2) | 64.5
CC(C)C[C@H](NC(=O)[C@H]1CSCc2ccc(cc2)CSC[C@@H](NC(=O)[C@H](C)NC(=O)[C@H](Cc2ccccc2)NC(=O)[C@H](CO)NC(=O)[C@@H](N)[C@@H](C)O)C(=O)N[C@@H](Cc2ccc(O)cc2)C(=O)N[C@@H](Cc2c[nH]c3ccccc23)C(=O)NCC(=O)N1)C(=O)N[C@@H](CO)C(=O)N1CCC[C@H]1C(N)=O [ArB15Cp] | > 250
C[C@@H]1NC(=O)[C@H](CCCNC(=N)N)NC(=O)C[C@@H]2CCCN2C(=O)Cc2ccc(cc2)CSCCCCNC(=O)C2CCN(CC2)C(=O)[C@@H](CCCCN)NC(=O)[C@H](CCCNC(=N)N)NC(=O)[C@@H](Cc2c[nH]c3ccccc23)NC(=O)[C@H](C)NC(=O)[C@H](CCCNC(=N)N)NC(=O)C[C@@H]2CCCN2C(=O)Cc2ccc(cc2)CSCCCCNC(=O)C2CCN(CC2)C(=O)[C@@H](CCCCN)NC(=O)[C@H](CCCNC(=N)N)NC(=O)[C@@H](Cc2c[nH]c3ccccc23)NC1=O [ArBMim, [-Bmpa-bhPro-Arg-Ala-Trp-Arg-Lys-Inp-CH2CH2CH2CH2-S-]2] (cyclo([Inp][X1][β3hP]RA[dW]R[dK][Inp][X1][β3hP]RA[dW]R[dK])) | 23.4 ± 2.1
C[C@@H](O)[C@H](N)C(=O)N[C@@H](CO)C(=O)N[C@@H](Cc1ccccc1)C(=O)N[C@@H](CCCNC(=N)N)C(=O)N[C@@H](CCCNC(=N)N)C(=O)N[C@@H](Cc1ccc(O)cc1)C(=O)N[C@H]1CSCc2cccc(c2)CSC[C@@H](C(=O)N[C@@H](CO)C(=O)N2CCC[C@H]2C(N)=O)NC(=O)[C@H](CCCNC(=N)N)NC(=O)[C@H](CCCNC(=N)N)NC1=O [ArB14Dm] | 118
CC(C)C[C@H](NC(=O)[C@H](CCCNC(=N)N)NC(=O)[C@@H]1CSCc2ccccc2CSC[C@H](NC(=O)[C@H](Cc2ccccc2)NC(=O)[C@@H](N)CCCNC(=N)N)C(=O)N[C@@H](CCCNC(=N)N)C(=O)N[C@@H](Cc2ccc(O)cc2)C(=O)N[C@@H](Cc2c[nH]c3ccccc23)C(=O)N1)C(=O)N[C@@H](CCCNC(=N)N)C(=O)N1CCC[C@H]1C(N)=O [ArB15Fo] (H-RFCRYWCRLRP-NH2; linker 3-7 via oXylylene; N-terminus assumed) | 49.6
C[C@H](NC(=O)[C@H](Cc1c(F)c(F)c(F)c(F)c1F)NC(=O)[C@H](CO)NC(=O)[C@@H](N)[C@@H](C)O)C(=O)N[C@@H]1CSCc2ccccc2CSC[C@@H](C(=O)N[C@H](C)C(=O)N[C@@H](CC2CCCCC2)C(=O)N[C@@H](CO)C(=O)N2CCNCC2)NC(=O)[C@H](Cc2cccc3ccccc23)NC(=O)[C@H](Cc2ccc(O)cc2)NC1=O [ArB14Ao, Thr-Ser-PhF-Ala-Cys-Tyr-Na1-Cys-Ala-Cha-Ser-Pipz] (H-TS[Phe(F5)]A[dC]Y[1Nal]C[dA][Cha]S-{N(CH2CH2)2NH}; linker 5-8 via oXylylene; N-terminus assumed) | 83.3
CC(C)C[C@H](NC(=O)[C@H](CCCNC(=N)N)NC(=O)[C@@H]1CSCc2cccc(c2)CSC[C@H](NC(=O)[C@H](Cc2ccccc2)NC(=O)[C@@H](N)CCCNC(=N)N)C(=O)N[C@@H](CCCNC(=N)N)C(=O)N[C@@H](Cc2ccc(O)cc2)C(=O)N[C@@H](Cc2c[nH]c3ccccc23)C(=O)N1)C(=O)N[C@@H](CCCNC(=N)N)C(=O)N1CCC[C@H]1C(N)=O [ArB15Gm] (H-RFCRYWCRLRP-NH2; linker 3-7 via mXylylene; N-terminus assumed) | 52.2
C[C@@H](O)[C@H](N)C(=O)N[C@@H](CO)C(=O)N[C@@H](Cc1ccccc1)C(=O)N[C@@H](CCCNC(=N)N)C(=O)N[C@@H](CCCNC(=N)N)C(=O)N[C@@H](Cc1ccc(O)cc1)C(=O)N[C@H]1CS(=O)(=O)Cc2cccc(c2)CS(=O)(=O)C[C@@H](C(=O)N[C@@H](CO)C(=O)N2CCC[C@H]2C(N)=O)NC(=O)[C@H](CCCNC(=N)N)NC(=O)[C@H](CCCNC(=N)N)NC1=O [ArB14Dmx] | 142
CC(C)C[C@H](NC(=O)[C@H](CCCNC(=N)N)NC(=O)[C@H](CS)NC(=O)[C@H](Cc1c[nH]c2ccccc12)NC(=O)[C@H](Cc1ccc(O)cc1)NC(=O)[C@H](CCCNC(=N)N)NC(=O)[C@H](CS)NC(=O)[C@H](Cc1ccccc1)NC(=O)[C@@H](N)CCCNC(=N)N)C(=O)N[C@@H](CCCNC(=N)N)C(=O)N1CCC[C@H]1C(N)=O [ArB15F/Gr] (H-RFCRYWCRLRP-NH2; N-terminus assumed) | > 250
CC(C)C[C@H](NC(=O)[C@H](CCCNC(=N)N)NC(=O)[C@@H]1CSCc2ccccc2CSC[C@H](NC(=O)[C@H](Cc2ccccc2)NC(=O)[C@H](CCCNC(=N)N)NC(=O)c2cccnc2)C(=O)N[C@@H](CCCNC(=N)N)C(=O)N[C@@H](Cc2ccc(O)cc2)C(=O)N[C@@H](Cc2c[nH]c3ccccc23)C(=O)N1)C(=O)N[C@@H](CCCNC(=N)N)C(=O)N1CCC[C@H]1C(N)=O [ArB15FNico] (Nicotinoyl-RFCRYWCRLRP-NH2; linker 3-7 via oXylylene) | 189
Cc1cn([C@H]2C[C@H](n3cc(CCCC(=O)N[C@H](CCCNC(=N)N)C(=O)N[C@@H](CCCNC(=N)N)C(=O)N[C@@H](Cc4c(F)c(F)c(F)c(F)c4F)C(=O)N[C@@H](CCCNC(=N)N)C(=O)N[C@@H]4CSCc5ccccc5CSC[C@@H](C(=O)N[C@H](CCCNC(=N)N)C(=O)N[C@@H](CC5CCCCC5)C(=O)N[C@@H](CCCNC(=N)N)C(=O)N5Cc6ccccc6C5C(N)=O)NC(=O)[C@H](Cc5cccc6ccccc56)NC(=O)[C@H](Cc5ccc(O)cc5)NC4=O)nn3)[C@@H](CO)O2)c(=O)[nH]c1=O (stereo partly drawn) [ArB14Co-AZT, AZT-Arg-Arg-PhF-Arg-Cys-Tyr-Na1-Cys-Arg-Cha-Arg-DISC] (X2-[dR]R[Phe(F5)]R[dC]Y[1Nal]C[dR][Cha]R[ξDisc]-NH2; linker 5-8 via oXylylene; N-terminus assumed) | 30.2 ± 2.5
CN(Cc1cnc2nc(N)nc(N)c2n1)c1ccc(C(=O)N[C@@H](CCC(=O)NCCCCCC(=O)N[C@H](CCCNC(=N)N)C(=O)N[C@@H](CCCNC(=N)N)C(=O)N[C@@H](Cc2c(F)c(F)c(F)c(F)c2F)C(=O)N[C@@H](CCCNC(=N)N)C(=O)N[C@@H]2CSCc3ccccc3CSC[C@@H](C(=O)N[C@H](CCCNC(=N)N)C(=O)N[C@@H](CC3CCCCC3)C(=O)N[C@@H](CCCNC(=N)N)C(=O)N3Cc4ccccc4C3C(N)=O)NC(=O)[C@H](Cc3cccc4ccccc34)NC(=O)[C@H](Cc3ccc(O)cc3)NC2=O)C(=O)O)cc1 (stereo partly drawn) [ArB14Co-MTX, MTX-Ahx-Arg-Arg-PhF-Arg-Cys-Tyr-Na1-Cys-Arg-Cha-Arg-DISC] ({DAMPA-γGlu-Ahx}-[dR]R[Phe(F5)]R[dC]Y[1Nal]C[dR][Cha]R[ξDisc]-NH2; linker 5-8 via oXylylene) | 6.9 ± 0.4

Same assay, conditions: read-out: EC50 [μM] HCT-116; HCT116 colorectal cancer cells, PrestoBlue assay; NA = not active

SMILES | EC50 [µM]
CC(C)C[C@H](NC(=O)[C@H]1CSCc2cccc(c2)Cc2cccc(c2)CSC[C@H](NC(=O)[C@H](C)NC(=O)[C@H](Cc2ccccc2)NC(=O)[C@H](CO)NC(=O)[C@@H](N)[C@@H](C)O)C(=O)N[C@@H](Cc2ccc(O)cc2)C(=O)N[C@@H](Cc2c[nH]c3ccccc23)C(=O)NCC(=O)N1)C(=O)N[C@@H](CO)C(=O)N1CCC[C@H]1C(N)=O [ArB15Eb] | 163

These molecules were tested on MCF-7 breast cancer cell line (assay: Cell viability, MCF-7, PrestoBlue assay). Conditions: NA = not active.
Format: cell-based
Protocol: To test our theory we decided to focus on Smac multimers. First, we synthesized a small library of Smac compounds (see, Tables 3 and 4) varying in position 4 substituents having general structure N-MeAla-Tle-4-(trans-Bn)-Pro-Xaa-NHCH2CH2—SH (SEQ ID NO:38), which were tested in vitro using MDA-MB-231 and MCF-7 breast cancer cell lines and PrestoBlue™ assay (Invitrogen).

SMILES | EC50 [µM]
CN[C@@H](C)C(=O)N[C@H](C(=O)N1C[C@H](Cc2ccccc2)C[C@H]1C(=O)N[C@@H](CC1CCCCC1)C(=O)NCCS)C(C)(C)C [SMAC12, N^MeAla-Tle-(4-Bzl)Pro-Cha-NHCH2CH2SH] (H-[NMeA][Tle][Pro(4R-Bn)][Cha]-Cysteamide; N-terminus assumed) | 21.2 ± 2.4
CN[C@@H](C)C(=O)N[C@H](C(=O)N1C[C@H](Cc2ccccc2)C[C@H]1C(=O)N[C@H](C(=O)NCCS)C1CCCCC1)C(C)(C)C [SMAC6, N^MeAla-Tle-(4-Bzl)Pro-Chg-NHCH2CH2SH] (H-[NMeA][Tle][Pro(4R-Bn)][Chg]-Cysteamide; N-terminus assumed) | 31.2 ± 2.1
CN[C@@H](C)C(=O)N[C@H](C(=O)N1C[C@H](Cc2ccccc2)C[C@H]1C(=O)N[C@@H](Cc1c(F)c(F)c(F)c(F)c1F)C(=O)NCCS)C(C)(C)C [SMAC9, N^MeAla-Tle-(4-Bzl)Pro-PhF-NHCH2CH2SH] | 19.8 ± 3
